Each compound was assayed against redox function of APE1 (Homo sapiens, UniProt P27695) (assay: Redox EMSA Assay). Settings: 0.02 mM DTT.
Chain of redox function of APE1 (P27695 whole entry): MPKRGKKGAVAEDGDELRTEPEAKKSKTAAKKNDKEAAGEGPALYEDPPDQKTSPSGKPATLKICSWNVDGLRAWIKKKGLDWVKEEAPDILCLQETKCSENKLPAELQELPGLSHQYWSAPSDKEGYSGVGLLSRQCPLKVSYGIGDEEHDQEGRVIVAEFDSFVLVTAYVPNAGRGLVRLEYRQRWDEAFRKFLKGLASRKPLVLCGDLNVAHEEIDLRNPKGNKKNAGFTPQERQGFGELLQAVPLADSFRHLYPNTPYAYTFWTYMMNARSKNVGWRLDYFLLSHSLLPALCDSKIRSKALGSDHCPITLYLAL
Type: biochemical
Experimental: EXAMPLE. Redox EMSA Assay. Conventional electrophoresis measuring Ape1 […] with 0.02 mM DTT is used to evaluate test compounds. Additional details are described in Fishel et al. Mol Cancer Ther. 2011 September; 10(9):1698-708 & Luo et al., Antioxid Redox Signal. 2008 November; 10(11):1853-67. […]
With `CCC/C(=C\C1=C(OC)C(=O)c2ccccc2C1=O)C(=O)NC` [Example 1] the IC50 was 6.2 µM. `CCC/C(=C\C1=C(OC)C(=O)c2ccccc2C1=O)C(=O)N(C)C` [Example 2] was tested, and the IC50 was 2.3 µM. In the case of `CCC/C(=C\C1=C(OC)C(=O)c2ccccc2C1=O)C(=O)NCC` [Example 3], the IC50 is reported as 3.3 µM. In the case of `CCC/C(=C\C1=C(OC)C(=O)c2ccccc2C1=O)C(=O)N(CC)CC` [Example 5], the IC50 is reported as under 1 µM. With `CCCC/C(=C\C1=C(C)C(=O)c2ccccc2C1=O)C(=O)NC` [Example 6] the IC50 was 17 µM. Work on `CCCC/C(=C\C1=C(C)C(=O)c2ccccc2C1=O)C(=O)N(C)C` [Example 7] yielded an IC50 of 23 µM. In the case of `CCCC/C(=C\C1=C(C)C(=O)c2ccccc2C1=O)C(=O)NCC` [Example 8], the IC50 is reported as 20 µM. `CCCC/C(=C\C1=C(C)C(=O)c2ccccc2C1=O)C(=O)N(CC)CC` [Example 9] showed an IC50 of 120 µM. `CCCC/C(=C\C1=C(OC)C(=O)c2ccccc2C1=O)C(=O)NOC` [Example 10] was tested, and the IC50 was under 1 µM. `CCCC/C(=C\C1=C(C)C(=O)c2ccccc2C1=O)C(=O)NC1CC1` [Example 11] showed an IC50 of 14 µM. For `CCCC/C(=C\C1=C(C)C(=O)c2ccccc2C1=O)C(=O)NC1CCCCC1` [Example 14], the IC50 was 98 µM. `CCCC/C(=C\C1=C(C)C(=O)c2ccccc2C1=O)C(=O)N1CCNC(=O)C1` [Example 15] was tested, and the IC50 was 23 µM. `CCCC/C(=C\C1=C(C)C(=O)c2ccccc2C1=O)C(=O)N(C)OC` [Example 16] gave an IC50 of 26 µM. `CCCC/C(=C/C1=C(C)C(=O)c2ccccc2C1=O)C(=O)N1CCOCC1` [Example 17] was tested, and the IC50 was 25 µM. Compound `CCCC/C(=C\C1=C(C)C(=O)c2ccccc2C1=O)C(=O)N1CCOCC1` [Example 18] has an IC50 of 34 µM. In the case of `CCCC/C(=C\C1=C(C)C(=O)c2ccccc2C1=O)C(=O)NCCOC` [Example 20], the IC50 is reported as 94 µM. In the case of `CCCC/C(=C/C1=C(C)C(=O)c2ccccc2C1=O)C(=O)NCCOC` [Example 21], the IC50 is reported as 40 µM. In the case of `CCC/C(=C\C1=C(Cl)C(=O)c2ccccc2C1=O)C(=O)NOC` [Example 22], the IC50 is reported as under 2.5 µM. `CCC/C(=C\C1=C(Cl)C(=O)c2ccccc2C1=O)C(=O)N(CC)CC` [Example 23] showed an IC50 of 2.5 µM. Work on `CCC/C(=C\C1=C(O)C(=O)c2ccccc2C1=O)C(=O)O` [Example 24] yielded an IC50 of over 10 µM. `CCCC(=CC1=C(OC)C(=O)c2ccccc2C1=O)C(=O)N(CC)CC` [Example 25] showed an IC50 of 13 µM. `CCCC(=CC1=C(OC)C(=O)c2ccccc2C1=O)C(=O)N(C)C` [Example 26] gave an IC50 of 2.6 µM. With `CCCCCCCCC/C(=C\C1=C(C)C(=O)C(OC)=C(OC)C1=O)C(=O)NOC` [Example 29] the IC50 was 17 µM. Compound `CCCCCCCCC/C(=C\C1=C(C)C(=O)C(OC)=C(OC)C1=O)C(=O)N(C)CC(O)C(O)C(O)C(O)CO` (stereo not drawn) [Example 30] has an IC50 of 15 µM. With `CCCC/C(=C\C1=C(C)C(=O)C(OC)=C(OC)C1=O)C(=O)N(C)OC` [Example 31] the IC50 was 24 µM. For `CCCC/C(=C\C1=C(C)C(=O)c2ccccc2C1=O)C(=O)O` [Example 32], the IC50 was 47 to 52 µM. In the case of `CCCC/C(=C\C1=C(OC)C(=O)c2ccccc2C1=O)C(=O)O` [Example 33], the IC50 is reported as 0.5 µM.
